“Also recorded” adds a separate entry of the source. Where two headings read alike, the source gives them in different places. No end group written: not given here.
What was measured:
[1] = system: thrombotic cerebral infarction PIT model; test: PIT model: damaged cerebral region by TTC staining; assay type: in vivo, mouse; conditions: for damaged cerebral region by TTC staining: second Example 13
[2] = system: thrombotic cerebral infarction PIT model
proMMP-9 = test: Gelatin zymography of proMMP-9 activity after retinal ischemia; assay type: in vivo, mouse; conditions: 1 pmol
Excerpt: It is known that a tight junction protein, occluding, is degraded by metalloproteinases (MMP) whose expression is increased by ischemia (J Cereb Blood Flow Metab, 2007. 27(4): p. 697-709). It is believed that MMP-9, in particular, plays a primary role in a failure of a blood-organ barrier by ischemia (J Cereb Blood Flow Metab, 2000. 20(12): p. 1681-9).
The expression level of MMP-9 is commonly low and the expression is derived by various stimuli by ischemia.

[3] = system: model mice of cerebral ischemia (tMCAO); test: tMCAO (ischemia for an hour, reperfusion) model, clinical scores of motor dysfunction; assay type: in vivo, mouse; conditions: for protective effect on motor dysfunction: i.v. after an hour after ischemia, 1 to 10 mg/kg
Description: The model mice of cerebral ischemia produced by left middle cerebral artery occlusion in C57BL/J6 mice were maintained for an hour, followed by reperfusion. P30 (1 mg/kg or 3 mg/kg) or P6 (1 mg/kg) was administered into the caudal vein after an hour of reperfusion. Thereafter, the course of the mice was observed every 24 hours to evaluate motor function and existence. The clinical scores showing motor dysfunction are evaluated using the following five grades: 1: unable to completely extend the right front limb, 2: clockwise circling behavior, 3: unable to hold the position and incline to the right, 4: disappearance of spontaneous movement, and 5: death.
In FIG. 5, the data indicated by white squire indicate values when 0.1% DMSO in PBS (vehicle) was administered into the caudal vein in an amount of 100 μl/10 g after an hour of tMCAO for an hour. […] Black circle and black rhombus in the upper graph indicate the results of 1 mg/kg and 3 mg/kg P30 intravenous (i.v.) administration, respectively, and black circle in the lower graph indicates the results of 1 mg/kg P6 intravenous (i.v.) administration.
(§1) To evaluate the degree of motor function disorders associated with cerebral ischemia, the neurological scores (Clinical Scores) according to the following definition were used. In addition, two grade evaluation was carried out using numerical values 1 to 4 (when scores 1 and 2 were shown, 1.5 was used).
(§2) 1: motor function disorders of the right front limb, 2: one-directional behavior, 3: unable to hold the position and incline, 4: disappearance of spontaneous movement, and 5: death.

[4] = system: tMCAO model (ischemia for 4 hours), tPA-induced motor dysfunction; test: tMCAO for four hours with tPA: clinical score and mortality after a day; assay type: in vivo, mouse; conditions: for death of mice: 10 mg/kg peptide with tPA after 4 hours of tMCAO ischemia
Description: After tMCAO for four hours, the clinical score and mortality rate were evaluated after a day (FIG. 8). […] The tMCAO for four hours corresponds to the state after 3 hours from the onset of ischemic diseases.
as §1, §2

[5] = system: tMCAO model (ischemia for 4 hours), tPA-induced cerebral hemorrhage
Description: Mice were anesthetized with 3% isoflurane (Escain (registered trademark), Mylan Seiyaku Ltd., Tokyo, Japan) (Small animal anesthetizer MK-A100, Muromachi Kikai Co., Ltd., Tokyo, Japan). On a constant-temperature table at 37° C. (Ikemoto Scientific Technology Co., Ltd., Tokyo, Japan), the skin in the pharyngeal region is cut lengthwise into about 2 cm with scissors. The skin was drawn to the right using a hard silk thread (hard No. 8, Natsume Seisakusho Co., Ltd.) to secure a visual field. Using a stereoscopic microscope, the left common carotid artery which is located on the left side of the trachea is secured with a hard silk thread while exfoliating connective tissue, nerves and the like. By following the common carotid artery upward, the artery is separated into the internal carotid artery and the external carotid artery, and the external carotid artery on the left near side is tightly tied at two points with a soft silk thread and the space between the points is cut. A thin vessel extending upward from the internal carotid artery is secured with a soft silk thread. The soft silk thread and hard silk thread are strongly drawn to stop blood flow and an incision is made in the internal carotid artery with scissors. From that, an obturator is inserted 1 to 1.5 cm and the middle cerebral artery is occluded. The internal carotid artery was tied together with the obturator using a soft silk thread to fix the obturator. A soft silk thread is passed under the hard silk thread drawing and the common carotid artery is tied thereby on the near side of the hard silk thread, and the hard silk thread is then removed. The breath is sutured at two points with a soft silk thread. In the case of the model of transient middle cerebral artery occlusion (tMCAO) of the present problem, anesthesia was applied to the mice with 3% isoflurane again after an hour or 4 hours on a constant-temperature table at 37° C., and the soft silk thread suturing the breath is untied to open the breath. The soft silk thread tying the internal carotid artery was loosened and the obturator was withdrawn, and the internal carotid artery was immediately tied again.

[6] = peptide in combination with tPA, peptide dose not given
[7] = second Example 13, peptide in combination with tPA, peptide dose not given

With “Peptide R: P6 derivative peptide (EEVDQE)” the “damaged cerebral region by TTC staining” value [1, 6] was 54±4.5% and the Clinical score [2, 7] was 1.1±0.1.

In the case of “Ac-NEVDEE-NH2 [Peptide F, N-acetyl-P6-amide]”, the Clinical score [2, 7] is reported as 1.2±0.2 and the “increase in activity of proMMP-9 by ischemia” value (proMMP-9) is reported as “effect equal to that of P6”.

For “Peptide L: P6 derivative peptide (NEIDEE)”, the “damaged cerebral region by TTC staining” value [1, 6] was 46±5.6% and the Clinical score [2, 7] was 1.3±0.2.

With “Peptide P: P6 derivative peptide (EEVNEE)” the “damaged cerebral region by TTC staining” value [1, 6] was 47±5.1% and the Clinical score [2, 7] was 1.1±0.1.

With “pEEVDEE (not fully specified (residue 1); listed as Homo sapiens) [Peptide D, P6 derivative peptide]” the “damaged cerebral region by TTC staining” value [1, 6] was 52±7.2%, the “protective effect on motor dysfunction” value [3] was “not as good as that of Peptide A and Peptide B” and the Clinical score [2, 7] was 1±0. The death of mice [4] was “all mice were died”.

In the case of NEVDEE-NH2 [Peptide E, NEVDEE-NH2], the death of mice [4] is reported as “all mice were died”.

“Peptide Q: P6 derivative peptide (EEVDQE)” was tested, and the “damaged cerebral region by TTC staining” value [1, 6] was 55±1.4% and the Clinical score [2, 7] was 1.7±0.5.

In the case of “tPA: thrombolytic agent, tissue plasminogen activator, purchased from Kyowa Hakko Kirin Co., Ltd. [reference compound]”, the “damaged cerebral region by TTC staining” value ([1]; tPA alone after 6 hours of PIT treatment) is reported as 44±2.6%, the “protective effect (infarct region)” value ([1]; tPA administered after 6 hours of ischemia) is reported as “the protective effect was not confirmed” and the infarct region ([1]; tPA treatment after an hour after thrombus formation) is reported as “significant decrease in the infarct region”. For the same substance, the “protective effect (infarct region)” value ([1]; tPA treatment time delayed (2 to 4 hours)) was “protective effect was reduced”, the Clinical score ([2]; Example 12, tPA-alone after 6 hours of PIT treatment) was 1.5±0.2 and the Clinical score ([2]; second Example 13, tPA alone after 6 hours of PIT treatment) was 1.4±0.1. The “mortality rate after a day of ischemia” value ([4]; 10 mg/kg tPA alone) was 35.7%, the “motor dysfunction (clinical score) after a day” value ([4]; 10 mg/kg tPA alone, immediately before reperfusion) was “deteriorated” and the “motor dysfunction score after a day” value ([4]; 10 mg/kg tPA treatment, tMCAO ischemia for 4 hours, score 2 without tPA) was 3.5. It also gave a hemorrhagic region ([5]; mouse, in vivo, iv, 10 mg/kg) of 0.7±0.2 mm^2.

With NEVDEE [Peptide P6, NEVDEE] the cerebral hemorrhage ([5]; mouse, in vivo) was “trend to exacerbate cerebral hemorrhage”.

In the case of “pEEVNEE (not fully specified (residue 1); listed as Homo sapiens) [Peptide B]”, the “damaged cerebral region by TTC staining” value [1, 6] is reported as 42±6.1%, the “protective effect on motor dysfunction” value [3] is reported as “dose-dependently protective effect on motor dysfunction; also recorded: high protective activity” and the “dose showing the (greatest) protective effect on motor dysfunction” value ([3]; i.v., tMCAO 60 min ischemia) is reported as 10 mg/kg. For the same substance, the Clinical score [2, 7] was 1±0, the “tPA-induced exacerbation of motor dysfunction” value ([4]; 10 mg/kg peptide coadministered i.v. with tPA, 24 hours after ischemia) was “tended to inhibit” and the tPA-induced cerebral hemorrhage ([5]; 10 mg/kg peptide coadministered with tPA) was “did not have an influence”.

For NEVDQE [Peptide A, NEVDQE], the “hemorrhage in the cerebral cortex region” value ([5]; mouse, in vivo, iv, 1 mg/kg) was 0.09±0.01 mm^2, the “hemorrhage in the cerebral cortex region” value ([5]; mouse, in vivo, iv, 3 mg/kg) was 0.06±0.01 mm^2 and the “hemorrhage in the cerebral cortex region” value ([5]; mouse, in vivo, iv, 10 mg/kg) was 0.08±0.01 mm^2.

With “Peptide S: P6 derivative peptide (EEVDEE)” the “damaged cerebral region by TTC staining” value [1, 6] was 51±5.7% and the Clinical score [2, 7] was 1.1±0.2.

Reference: patent US9617324B2, “Ameliorating agent for blood-brain barrier dysfunction” (Nagasaki University, priority 2012, dated 2017)
